These are literature values, as cited in patent publication US20060147391A1, “Composition for enhancing oral health” (priority 2002, published 2006).

The subject of this series is oral microorganisms (intraoral bacteria such as Streptococcus mutans, Streptococcus sobrinus and Porphyromonas gingivalis). The conditions noted are these: reported result in vitro (Korean publications, WO 00/67711).

Consider `CC(C)=CCC[C@@H](C)c1ccc(C)c(O)c1` [Xanthorrhizol], for which the “antibacterial activity against oral microorganisms” value is recorded as “excellent antibacterial activity”.
